{"source": "paper PMC7522858", "about": "“The Synthetic Myeloperoxidase Inhibitor AZD3241 Ameliorates Dextran Sodium Sulfate Stimulated Experimental Colitis” (Frontiers in Pharmacology, 2020)", "target": "T1, myeloperoxidase (MPO) (Homo sapiens, UniProt P05164)", "T1 construct": "isolated human MPO", "T1 sequence (P05164 165-273)": "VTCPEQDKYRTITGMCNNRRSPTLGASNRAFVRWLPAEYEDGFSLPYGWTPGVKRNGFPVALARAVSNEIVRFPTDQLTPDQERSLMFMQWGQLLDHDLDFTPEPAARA", "T1 sequence (P05164 279-745)": "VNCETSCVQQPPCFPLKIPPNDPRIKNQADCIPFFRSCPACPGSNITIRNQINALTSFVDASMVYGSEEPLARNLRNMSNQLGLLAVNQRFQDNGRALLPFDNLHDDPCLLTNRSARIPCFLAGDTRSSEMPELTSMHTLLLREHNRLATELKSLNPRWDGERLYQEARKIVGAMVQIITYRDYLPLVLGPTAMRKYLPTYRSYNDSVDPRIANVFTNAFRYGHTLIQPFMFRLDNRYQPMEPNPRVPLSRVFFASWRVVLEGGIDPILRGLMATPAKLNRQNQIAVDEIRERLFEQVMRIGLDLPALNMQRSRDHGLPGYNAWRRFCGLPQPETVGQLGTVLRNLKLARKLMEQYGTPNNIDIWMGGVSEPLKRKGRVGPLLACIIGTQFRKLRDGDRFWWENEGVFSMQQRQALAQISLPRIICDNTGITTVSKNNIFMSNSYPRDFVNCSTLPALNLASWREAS", "assay": "luminol luminescence assay of isolated human MPO with H2O2 and NaCl", "type": "biochemical", "data": [{"smiles": "CC(C)OCCn1c(=S)[nH]c(=O)c2[nH]ccc21", "note": "[AZD3241]", "values": [{"measurement": "IC50", "value": "~1200", "unit": "nM"}]}]}
